From the NIST ThermoML archive (doi:10.1016/j.jct.2006.09.001)
Several values for one entry are separate records, joined by “and”; a condition that tells them apart may be missing. Equal values may be shown once. ± gives the expanded uncertainty stated by the source.

How the values were obtained:
[1] = for Normal melting temperature: DTA
[2] = Molar enthalpy of transition or fusion; details: Crystal; DSC

OC[c-]1cccc1.[Fe+2].c1cc[cH-]c1 [(hydroxymethyl)ferrocene]
vapor or sublimation pressure ([1]; 313.3 K, Crystal): 0.00011 ± 1e-05 kPa | vapor or sublimation pressure ([1]; 316.7 K, Crystal): 0.00015 ± 2e-05 kPa | vapor or sublimation pressure ([1]; 320.4 K, Crystal): 0.00025 ± 3e-05 kPa | vapor or sublimation pressure ([1]; 323.3 K, Crystal): 0.00036 ± 4e-05 kPa | vapor or sublimation pressure ([1]; 327.3 K, Crystal): 0.00056 ± 6e-05 kPa | vapor or sublimation pressure ([1]; 330.4 K, Crystal): 0.00079 ± 8e-05 kPa and 0.00078 ± 8e-05 kPa | vapor or sublimation pressure ([1]; 333.7 K, Crystal): 0.00116 ± 0.00012 kPa | vapor or sublimation pressure ([1]; 333.8 K, Crystal): 0.00111 ± 0.00011 kPa | vapor or sublimation pressure ([1]; 335.9 K, Crystal): 0.0015 ± 0.00015 kPa | vapor or sublimation pressure ([1]; 336.2 K, Crystal): 0.00149 ± 0.00015 kPa | vapor or sublimation pressure ([1]; 339.8 K, Crystal): 0.00218 ± 0.00022 kPa | vapor or sublimation pressure ([1]; 341.1 K, Crystal): 0.00254 ± 0.00026 kPa | vapor or sublimation pressure ([1]; 342 K, Crystal): 0.0029 ± 0.0003 kPa | vapor or sublimation pressure ([1]; 343.3 K, Crystal): 0.00329 ± 0.00034 kPa | vapor or sublimation pressure ([1]; 346 K, Crystal): 0.00416 ± 0.00042 kPa | vapor or sublimation pressure ([1]; 347.3 K, Crystal): 0.00468 ± 0.00048 kPa | vapor or sublimation pressure ([1]; 347.4 K, Crystal): 0.00492 ± 0.0005 kPa | vapor or sublimation pressure ([1]; 353.2 K, Liquid): 0.00788 ± 0.0008 kPa | vapor or sublimation pressure ([1]; 355.2 K, Liquid): 0.00938 ± 0.00095 kPa | vapor or sublimation pressure ([1]; 357.3 K, Liquid): 0.0104 ± 0.001 kPa | vapor or sublimation pressure ([1]; 358.9 K, Liquid): 0.01181 ± 0.0012 kPa | vapor or sublimation pressure ([1]; 359.6 K, Liquid): 0.01286 ± 0.0013 kPa | vapor or sublimation pressure ([1]; 361.6 K, Liquid): 0.01452 ± 0.0015 kPa | vapor or sublimation pressure ([1]; 363.4 K, Liquid): 0.01668 ± 0.0017 kPa | vapor or sublimation pressure ([1]; 364.7 K, Liquid): 0.01879 ± 0.0019 kPa | vapor or sublimation pressure ([1]; 366.1 K, Liquid): 0.02236 ± 0.0023 kPa | vapor or sublimation pressure ([1]; 366.5 K, Liquid): 0.02159 ± 0.0022 kPa | vapor or sublimation pressure ([1]; 368.9 K, Liquid): 0.02708 ± 0.0027 kPa | vapor or sublimation pressure ([1]; 369 K, Liquid): 0.02499 ± 0.0025 kPa | vapor or sublimation pressure ([1]; 370.5 K, Liquid): 0.02709 ± 0.0027 kPa | vapor or sublimation pressure ([1]; 371.8 K, Liquid): 0.03178 ± 0.0032 kPa | vapor or sublimation pressure ([1]; 372.5 K, Liquid): 0.03208 ± 0.0033 kPa | vapor or sublimation pressure ([1]; 374 K, Liquid): 0.03745 ± 0.0038 kPa | vapor or sublimation pressure ([1]; 375.6 K, Liquid): 0.03813 ± 0.0039 kPa | vapor or sublimation pressure ([1]; 377 K, Liquid): 0.04507 ± 0.0046 kPa | vapor or sublimation pressure ([1]; 379.7 K, Liquid): 0.05509 ± 0.0056 kPa | vapor or sublimation pressure ([1]; 383.7 K, Liquid): 0.06949 ± 0.007 kPa | vapor or sublimation pressure ([1]; 385 K, Liquid): 0.07524 ± 0.0076 kPa | vapor or sublimation pressure ([1]; 386.8 K, Liquid): 0.08377 ± 0.0084 kPa | vapor or sublimation pressure ([1]; 389.6 K, Liquid): 0.09595 ± 0.0097 kPa | vapor or sublimation pressure ([1]; 393.7 K, Liquid): 0.1301 ± 0.013 kPa | Normal melting temperature ([1]; Crystal): 79.1 ± 0.7 °C | Molar enthalpy of transition or fusion [2]: 5.66 ± 0.191 kcal/mol

O=C(c1ccccc1)c1ccc[cH-]1.[Fe+2].c1cc[cH-]c1 [benzoylferrocene]
vapor or sublimation pressure ([1]; 342.3 K, Crystal, Transpiration method): 2.2e-05 ± 1e-06 kPa | vapor or sublimation pressure ([1]; 347.2 K, Crystal, Transpiration method): 3.8e-05 ± 2e-06 kPa | vapor or sublimation pressure ([1]; 350.2 K, Crystal, Transpiration method): 5.3e-05 ± 3e-06 kPa | vapor or sublimation pressure ([1]; 350.9 K, Crystal, Transpiration method): 5.8e-05 ± 3e-06 kPa | vapor or sublimation pressure ([1]; 353 K, Crystal, Transpiration method): 7.5e-05 ± 4e-06 kPa | vapor or sublimation pressure ([1]; 356 K, Crystal, Transpiration method): 9.7e-05 ± 5e-06 kPa | vapor or sublimation pressure ([1]; 357.8 K, Crystal, Transpiration method): 0.000123 ± 7e-06 kPa | vapor or sublimation pressure ([1]; 360.3 K, Crystal, Transpiration method): 0.000164 ± 9e-06 kPa | vapor or sublimation pressure ([1]; 363 K, Crystal, Transpiration method): 0.00021 ± 1.1e-05 kPa | vapor or sublimation pressure ([1]; 364 K, Crystal, Transpiration method): 0.000246 ± 1.4e-05 kPa | vapor or sublimation pressure ([1]; 366.4 K, Crystal, Transpiration method): 0.000313 ± 1.7e-05 kPa | vapor or sublimation pressure ([1]; 370 K, Crystal, Transpiration method): 0.000441 ± 2.4e-05 kPa | vapor or sublimation pressure ([1]; 371.7 K, Crystal, Transpiration method): 0.000553 ± 3.1e-05 kPa | vapor or sublimation pressure ([1]; 373.6 K, Crystal, Transpiration method): 0.000674 ± 3.7e-05 kPa | vapor or sublimation pressure ([1]; 377.3 K, Crystal, Transpiration method): 0.000963 ± 5.2e-05 kPa | vapor or sublimation pressure ([1]; 379.3 K, Crystal, Transpiration method): 0.001207 ± 6.5e-05 kPa | vapor or sublimation pressure ([1]; 384 K, Liquid, Transpiration method): 0.00187 ± 0.0001 kPa | vapor or sublimation pressure ([1]; 386.2 K, Liquid, Transpiration method): 0.00223 ± 0.00012 kPa | vapor or sublimation pressure ([1]; 389.1 K, Liquid, Transpiration method): 0.0027 ± 0.00014 kPa | vapor or sublimation pressure ([1]; 392.4 K, Liquid, Transpiration method): 0.00338 ± 0.00018 kPa | vapor or sublimation pressure ([1]; 396 K, Liquid, Transpiration method): 0.00428 ± 0.00022 kPa | vapor or sublimation pressure ([1]; 397.9 K, Liquid, Transpiration method): 0.00488 ± 0.00025 kPa | vapor or sublimation pressure ([1]; 402 K, Liquid, Transpiration method): 0.00618 ± 0.00035 kPa | vapor or sublimation pressure ([1]; 402.6 K, Liquid, Transpiration method): 0.00664 ± 0.00034 kPa | vapor or sublimation pressure ([1]; 404.8 K, Liquid, Transpiration method): 0.00742 ± 0.00039 kPa | vapor or sublimation pressure ([1]; 408.8 K, Liquid, Transpiration method): 0.00977 ± 0.0005 kPa | vapor or sublimation pressure ([1]; 408.9 K, Liquid, Transpiration method): 0.00961 ± 0.00049 kPa | vapor or sublimation pressure ([1]; 410.6 K, Liquid, Transpiration method): 0.01054 ± 0.00054 kPa | vapor or sublimation pressure ([1]; 413.6 K, Liquid, Transpiration method): 0.01254 ± 0.00065 kPa | vapor or sublimation pressure ([1]; 416.8 K, Liquid, Transpiration method): 0.01548 ± 0.0008 kPa | vapor or sublimation pressure ([1]; 419.7 K, Liquid, Transpiration method): 0.01891 ± 0.00097 kPa | vapor or sublimation pressure ([1]; 423.3 K, Liquid, Transpiration method): 0.02256 ± 0.0012 kPa | vapor or sublimation pressure ([1]; 426.6 K, Liquid, Transpiration method): 0.02806 ± 0.0014 kPa | vapor or sublimation pressure ([1]; 429.6 K, Liquid, Transpiration method): 0.03229 ± 0.0016 kPa | Normal melting temperature ([1]; Crystal): 109.5 ± 0.5 °C | Molar enthalpy of transition or fusion [2]: 7.15 ± 0.167 kcal/mol

[Fe+2].c1cc[cH-]c1.c1ccc(C[c-]2cccc2)cc1 [benzylferrocene]
vapor or sublimation pressure ([1]; 311.7 K, Crystal): 1.2e-05 ± 2e-06 kPa | vapor or sublimation pressure ([1]; 313 K, Crystal): 1.3e-05 ± 2e-06 kPa | vapor or sublimation pressure ([1]; 318 K, Crystal): 2.7e-05 ± 3e-06 kPa | vapor or sublimation pressure ([1]; 323.3 K, Crystal): 5.2e-05 ± 6e-06 kPa | vapor or sublimation pressure ([1]; 325.1 K, Crystal): 6.4e-05 ± 7e-06 kPa | vapor or sublimation pressure ([1]; 325.3 K, Crystal): 6.5e-05 ± 7e-06 kPa | vapor or sublimation pressure ([1]; 327.2 K, Crystal): 8.6e-05 ± 9e-06 kPa | vapor or sublimation pressure ([1]; 331.3 K, Crystal): 0.000132 ± 1.5e-05 kPa | vapor or sublimation pressure ([1]; 331.9 K, Crystal): 0.000152 ± 1.6e-05 kPa | vapor or sublimation pressure ([1]; 333.3 K, Crystal): 0.00017 ± 1.8e-05 kPa | vapor or sublimation pressure ([1]; 335.9 K, Crystal): 0.000236 ± 2.4e-05 kPa | vapor or sublimation pressure ([1]; 338.4 K, Crystal): 0.000303 ± 3.2e-05 kPa | vapor or sublimation pressure ([1]; 338.9 K, Crystal): 0.000323 ± 3.3e-05 kPa | vapor or sublimation pressure ([1]; 341.3 K, Crystal): 0.000442 ± 4.6e-05 kPa | vapor or sublimation pressure ([1]; 350.7 K, Liquid, Transpiration method): 0.00111 ± 6e-05 kPa | vapor or sublimation pressure ([1]; 352.9 K, Liquid, Transpiration method): 0.00129 ± 7e-05 kPa | vapor or sublimation pressure ([1]; 356.9 K, Liquid, Transpiration method): 0.00181 ± 0.0001 kPa | vapor or sublimation pressure ([1]; 361 K, Liquid, Transpiration method): 0.00247 ± 0.00013 kPa | vapor or sublimation pressure ([1]; 365 K, Liquid, Transpiration method): 0.00332 ± 0.00017 kPa | vapor or sublimation pressure ([1]; 369 K, Liquid, Transpiration method): 0.0046 ± 0.00024 kPa | vapor or sublimation pressure ([1]; 373.1 K, Liquid, Transpiration method): 0.00602 ± 0.00031 kPa | vapor or sublimation pressure ([1]; 377.1 K, Liquid, Transpiration method): 0.0082 ± 0.00043 kPa | Normal melting temperature ([1]; Crystal): 76.1 ± 0.7 °C | Molar enthalpy of transition or fusion [2]: 5.66 ± 0.12 kcal/mol

[CH]1C=CC=C1.[CH]1C=CC=C1.[Fe] [ferrocene]
vapor or sublimation pressure ([1]; 289.7 K, Crystal, Transpiration method): 0.00041 ± 3e-05 kPa | vapor or sublimation pressure ([1]; 299.6 K, Crystal, Transpiration method): 0.00116 ± 6e-05 kPa | vapor or sublimation pressure ([1]; 303.5 K, Crystal, Transpiration method): 0.00169 ± 9e-05 kPa | vapor or sublimation pressure ([1]; 303.6 K, Crystal, Transpiration method): 0.00172 ± 9e-05 kPa | vapor or sublimation pressure ([1]; 307.5 K, Crystal, Transpiration method): 0.00249 ± 0.00014 kPa | vapor or sublimation pressure ([1]; 312.5 K, Crystal, Transpiration method): 0.00388 ± 0.00021 kPa | vapor or sublimation pressure ([1]; 317.6 K, Crystal, Transpiration method): 0.00605 ± 0.00033 kPa | vapor or sublimation pressure ([1]; 322.6 K, Crystal, Transpiration method): 0.00945 ± 0.00051 kPa | vapor or sublimation pressure ([1]; 322.7 K, Crystal, Transpiration method): 0.00932 ± 0.0005 kPa | vapor or sublimation pressure ([1]; 327.6 K, Crystal, Transpiration method): 0.014 ± 0.00075 kPa | vapor or sublimation pressure ([1]; 332.8 K, Crystal, Transpiration method): 0.02131 ± 0.0011 kPa and 0.02096 ± 0.0011 kPa | vapor or sublimation pressure ([1]; 337.9 K, Crystal, Transpiration method): 0.03024 ± 0.0016 kPa | vapor or sublimation pressure ([1]; 342.9 K, Crystal, Transpiration method): 0.04379 ± 0.0023 kPa | vapor or sublimation pressure ([1]; 348 K, Crystal, Transpiration method): 0.06337 ± 0.0034 kPa | vapor or sublimation pressure ([1]; 353.1 K, Crystal, Transpiration method): 0.09205 ± 0.0049 kPa | vapor or sublimation pressure ([1]; 358.3 K, Crystal, Transpiration method): 0.1334 ± 0.007 kPa | vapor or sublimation pressure ([1]; 363.4 K, Crystal, Transpiration method): 0.1803 ± 0.0094 kPa | Normal melting temperature ([1]; Crystal): 174.7 ± 0.5 °C | Molar enthalpy of transition or fusion [2]: 4.37 ± 0.143 kcal/mol
